According to patent publication US20150105252A1, “SUBSTITUTED PYRAZOLES AS HERBICIDES” (E I DU PONT DE NEMOURS AND COMPANY, priority 2013, published 2015):

Tests used:
[1] = tested on: sedge, umbrella; assay: Test B flood; assay type: in vivo, Cyperus difformis; settings: 250 g ai/ha, visual rating on 0 to 100 scale (0 no effect, 100 complete control), 13 to 15 days
In short: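 2-leaf plants; pots flooded 3 cm over soil; compound added to paddy water, depth kept constant. Greenhouse 13–15 d. Visual rating vs controls, 0–100 scale (100 = complete control); dash = no result.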

[2] = tested on: ryegrass, Italian; assay: Test C preemergence; assay type: in vivo, Lolium multiflorum
In short: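 Pre- and postemergence greenhouse screen; vehicle was a non-phytotoxic solvent mix with surfactant. Preemergence: treatment applied right after sowing into loam and sand. Postemergence: treated at 1–4 leaves. Visual rating at 13–15 days, 100 = complete control.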

[3] = tested on: wheat; assay: Test A postemergence; assay type: in vivo, Triticum aestivum
In short: (§1)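 After sowing in a sand–loam mix, pots received compound preemergence by directed soil spray, or postemergence once plants reached the one- to two-leaf stage (2–10 cm). Formulation contained surfactant in a non-phytotoxic solvent. Injury was scored visually after ~10 greenhouse days, 0–100 scale.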

[4] = tested on: pigweed; assay: Test C preemergence; assay type: in vivo, Amaranthus retroflexus
Text: (§2) Seeds of plant species selected from blackgrass (Alopecurus myosuroides), ryegrass, Italian (Italian ryegrass, Lolium multiflorum), wheat (winter wheat, Triticum aestivum), galium (catchweed bedstraw, Galium aparine), corn (Zea mays), crabgrass, large (large crabgrass, Digitaria sanguinalis), foxtail, giant (giant foxtail, Setaria faberii), johnsongrass (Sorghum halepense), lambsquarters (Chenopodium album), morningglory (Ipomoea coccinea), nutsedge, yellow (yellow nutsedge, Cyperus esculentus), pigweed (redroot pigweed, Amaranthus retroflexus), ragweed (common ragweed, Ambrosia elation), soybean (Glycine max), barnyardgrass (Echinochloa crus-galli), oilseed rape (Brassica napus), waterhemp (common waterhemp, Amaranthus rudis), oat, wild (wild oat, Avena fatua), kochia (Kochia scoparia), Surinam grass (Brachiaria decumbens), foxtail, green (green foxtail, Setaria viridis), goosegrass (Eleusine indica), bromegrass, downy (downy bromegrass, Bromus tectorum), nightshade (eastern black nightshade, Solanum ptycanthum), cocklebur (common cocklebur, Xanthium strumarium), cupgrass, woolly (woolly cupgrass, Eriochloa villosa), bermudagrass (Cynodon dactylon), sunflower, (common oilseed sunflower, Helianthus annuus), Russian thistle (Salsola kali), and velvetleaf (Abutilon theophrasti) were planted into a blend of loam soil and sand and treated preemergence with test chemicals formulated in a non-phytotoxic solvent mixture which included a surfactant.
(§3) At the same time, plants selected from these crop and weed species and also chickweed (common chickweed, Stellaria media), canarygrass (littleseed canarygrass, Phalaris minor), and deadnettle (henbit deadnettle, Lamium amplexicaule), were planted in pots containing Redi-Earth® planting medium (Scotts Company, 14111 Scottslawn Road, Marysville, Ohio 43041) comprising spaghnum peat moss, vermiculite, wetting agent and starter nutrients and treated with postemergence applications of test chemicals formulated in the same manner. Plants ranged in height from 2 to 18 cm (1- to 4-leaf stage) for postemergence treatments. Treated plants and controls were maintained in a greenhouse for 13 to 15 days, after which time all species were compared to controls and visually evaluated. Plant response ratings, summarized in Table C, are based on a scale of 0 to 100 where 0 is no effect and 100 is complete control. A dash (-) response means no test result.

[5] = tested on: barnyardgrass; assay: Test A postemergence; assay type: in vivo, Echinochloa crus-galli
In short: as §1

[6] = tested on: velvetleaf; assay: Test A postemergence; assay type: in vivo, Abutilon theophrasti
In short: as §1

[7] = tested on: barnyardgrass; assay: Test A preemergence; assay type: in vivo, Echinochloa crus-galli; settings: preemergence; for Barnyardgrass plant response rating (0 to 100 scale, 0 is no effect, 100 is complete control): visual injury approx. 10 days after treatment
In short: as §1

[8] = tested on: corn; assay: Test A preemergence; assay type: in vivo, Zea mays; settings: preemergence; for Corn plant response rating (0 to 100 scale): 125 g ai/ha, visual injury approx. 10 days after treatment; for Corn plant response rating: 500 g ai/ha, visual injury after approx. 10 days, 0 to 100 scale (0 no effect, 100 complete control)
In short: as §1

[9] = tested on: waterhemp; assay: Test C preemergence; assay type: in vivo, Amaranthus rudis
Text: as §2, §3

[10] = tested on: soybean; assay: Test C preemergence; assay type: in vivo, Glycine max
Text: as §2, §3

[11] = preemergence, 31 g ai/ha, visual rating, scale 0 to 100 (0 no effect, 100 complete control), 13 to 15 days
[12] = preemergence, 62 g ai/ha, scale 0 to 100 (0 no effect, 100 complete control), 13 to 15 days
[13] = preemergence, 125 g ai/ha, 13 to 15 days, scale 0 to 100, 0 = no effect, 100 = complete control
[14] = preemergence, 250 g ai/ha, scale 0 to 100, 0 is no effect, 100 is complete control
[15] = Postemergence, 500 g ai/ha, 0 to 100 scale (0 no effect, 100 complete control)
[16] = postemergence, 125 g ai/ha, about 10 days, visual rating on 0 to 100 scale (0 no effect, 100 complete control)
[17] = 500 g ai/ha, visual injury after approx. 10 days, 0 to 100 scale (0 no effect, 100 complete control)
[18] = Preemergence, 16 g ai/ha, scale 0 to 100
[19] = Postemergence, 125 g ai/ha, 0 to 100 scale, 0 no effect, 100 complete control

## O=C(NC1CC1)c1cc(CCF)n(Cc2ccnc(C(F)(F)F)c2)n1 [Compound 176]
[1]
  Plant response rating, Sedge, Umbrella: 80
[2]; [11]
  Ryegrass, Italian plant response rating: 5
[2]; [12]
  Ryegrass, Italian plant response rating: 10
[2]; [13]
  Plant response rating, Ryegrass, Italian: 70
[2]; [14]
  Ryegrass, Italian plant response rating: 85
[3]; [15]
  Wheat plant response rating: 60
[3]; [16]
  Wheat plant response rating: 10
[4]; [11]
  Pigweed plant response rating: 100
[4]; [12]
  Pigweed plant response rating: 100
[4]; [13]
  Plant response rating, Pigweed: 100
[4]; [14]
  Pigweed plant response rating: 100
[5]; [15]
  Barnyardgrass plant response rating: 90
[5]; [16]
  Barnyardgrass plant response rating: 60
[6]; [15]
  Velvetleaf plant response rating: 90
[6]; [16]
  Velvetleaf plant response rating: 40
[7]; 125 g ai/ha
  Barnyardgrass plant response rating (0 to 100 scale, 0 is no effect, 100 is complete control): 80
[7]; [17]
  Barnyardgrass plant response rating: 100
[8]
  Corn plant response rating (0 to 100 scale): 10
  Corn plant response rating: 90
[9]; [11]
  Waterhemp plant response rating: 100
[9]; [12]
  Waterhemp plant response rating: 100
[9]; [13]
  Plant response rating, Waterhemp: 100
[9]; [14]
  Waterhemp plant response rating: 100
[10]; [11]
  Soybean plant response rating: 30
[10]; [12]
  Soybean plant response rating: 75
[10]; [13]
  Plant response rating, Soybean: 98
[10]; [14]
  Soybean plant response rating: 98

## O=C(NCC(F)(F)F)c1cc(CCF)n(Cc2ccnc(C(F)(F)F)c2)n1 [Compound 175]
[1]
  Plant response rating, Sedge, Umbrella: 85
[2]; [11]
  Ryegrass, Italian plant response rating: 30
[2]; [12]
  Ryegrass, Italian plant response rating: 85
[2]; [13]
  Plant response rating, Ryegrass, Italian: 90
[2]; [14]
  Ryegrass, Italian plant response rating: 90
[3]; [15]
  Wheat plant response rating: 80
[3]; [16]
  Wheat plant response rating: 40
[4]; [11]
  Pigweed plant response rating: 100
[4]; [12]
  Pigweed plant response rating: 100
[4]; [13]
  Plant response rating, Pigweed: 100
[4]; [14]
  Pigweed plant response rating: 100
[5]; [15]
  Barnyardgrass plant response rating: 90
[5]; [16]
  Barnyardgrass plant response rating: 70
[6]; [15]
  Velvetleaf plant response rating: 80
[6]; [16]
  Velvetleaf plant response rating: 60
[7]; 125 g ai/ha, visual injury, 0 to 100 scale, approx. 10 days
  Barnyardgrass plant response rating: 100
[7]; [17]
  Barnyardgrass plant response rating: 100
[8]
  Corn plant response rating (0 to 100 scale): 50
  Corn plant response rating: 80
[9]; [11]
  Waterhemp plant response rating: 100
[9]; [12]
  Waterhemp plant response rating: 100
[9]; [13]
  Plant response rating, Waterhemp: 100
[9]; [14]
  Waterhemp plant response rating: 100
[10]; [11]
  Soybean plant response rating: 30
[10]; [12]
  Soybean plant response rating: 98
[10]; [13]
  Plant response rating, Soybean: 98
[10]; [14]
  Soybean plant response rating: 98

## CCNC(=O)c1cc(CCF)n(Cc2ccnc(C(F)(F)F)c2)n1 [Compound 178]
[1]
  Plant response rating, Sedge, Umbrella: 85
[2]; [18]
  Plant response rating, Ryegrass, Italian: 0
[2]; [11]
  Ryegrass, Italian plant response rating: 5
[2]; [12]
  Ryegrass, Italian plant response rating: 5
[2]; [13]
  Plant response rating, Ryegrass, Italian: 15
[3]; [15]
  Wheat plant response rating: 30
[3]; [16]
  Wheat plant response rating: 0
[4]; [18]
  Plant response rating, Pigweed: 45
[4]; [11]
  Pigweed plant response rating: 100
[4]; [12]
  Pigweed plant response rating: 100
[4]; [13]
  Plant response rating, Pigweed: 100
[5]; [15]
  Barnyardgrass plant response rating: 80
[5]; [16]
  Barnyardgrass plant response rating: 70
[6]; [15]
  Velvetleaf plant response rating: 60
[6]; [16]
  Velvetleaf plant response rating: 40
[7]; 125 g ai/ha
  Barnyardgrass plant response rating (0 to 100 scale, 0 is no effect, 100 is complete control): 80
[7]; [17]
  Barnyardgrass plant response rating: 100
[8]
  Corn plant response rating (0 to 100 scale): 0
  Corn plant response rating: 50
[9]; [18]
  Plant response rating, Waterhemp: 65
[9]; [11]
  Waterhemp plant response rating: 90
[9]; [12]
  Waterhemp plant response rating: 100
[9]; [13]
  Plant response rating, Waterhemp: 100
[10]; [18]
  Plant response rating, Soybean: 5
[10]; [11]
  Soybean plant response rating: 5
[10]; [12]
  Soybean plant response rating: 40
[10]; [13]
  Plant response rating, Soybean: 75

## CCCc1cc(C(=O)NOC(C)C)nn1Cc1cc(C(F)(F)F)nn1C [Compound 203]
[1]
  Plant response rating, Sedge, Umbrella: 95
[2]; [11]
  Ryegrass, Italian plant response rating: 5
[2]; [12]
  Ryegrass, Italian plant response rating: 60
[2]; [13]
  Plant response rating, Ryegrass, Italian: 90
[2]; [14]
  Ryegrass, Italian plant response rating: 90
[3]; [19]
  Wheat plant response rating: 70
[3]; [15]
  Wheat plant response rating: 80
[4]; [11]
  Pigweed plant response rating: 100
[4]; [12]
  Pigweed plant response rating: 100
[4]; [13]
  Plant response rating, Pigweed: 100
[4]; [14]
  Pigweed plant response rating: 100
[5]; [15]
  Barnyardgrass plant response rating: 80
[5]; [16]
  Barnyardgrass plant response rating: 40
[6]; [19]
  Velvetleaf plant response rating: 30
[6]; [15]
  Velvetleaf plant response rating: 90
[7]; 125 g ai/ha
  Barnyardgrass plant response rating (0 to 100 scale, 0 is no effect, 100 is complete control): 80
[7]; [17]
  Barnyardgrass plant response rating: 100
[8]
  Corn plant response rating (0 to 100 scale): 20
  Corn plant response rating: 80
[9]; [11]
  Waterhemp plant response rating: 85
[9]; [12]
  Waterhemp plant response rating: 95
[9]; [13]
  Plant response rating, Waterhemp: 100
[9]; [14]
  Waterhemp plant response rating: 100
[10]; [11]
  Soybean plant response rating: 5
[10]; [12]
  Soybean plant response rating: 5
[10]; [13]
  Plant response rating, Soybean: 35
[10]; [14]
  Soybean plant response rating: 55
